Key:
SARS-CoV-2 [1] = type: cell-based
SARS-CoV-2 [2] = type: cell-based; remark: listed apart in the source
IFN-β and IFN-λ = type: cell-based, human
MAVS = MAVS protein levels in Calu3 cells (flow cytometry); type: cell-based, human; conditions: total and SARS-CoV-2 infected Calu3 cells, data not shown
MX1 = type: cell-based, human; conditions: infected Calu3, vs vehicle treated
IL-6 = type: cell-based, human
SARS-CoV-2 [3] = experiment: Post-exposure prophylaxis in two household-exposed parents (case report); type: in vivo, human
From the text: FIG. 8-a show the timeline of exposure, symptoms and diagnostic tests in household. Two parents [[…], A1 with history of chronic myelogenous leukemia (CML) and healthy parent 39 years, A2] were notified on Dec. 5, 2020 [defined as day 5 (D5)], that the schoolteacher (T1) of their child (C1) tested positive for SARS-CoV-2 and developed symptoms of Covid-19. C1 had 6-h exposure to T1 on November 30 (with masks) (D0). The family had no other exposure to any other person between November 20-30 (D-10 to D0) given Thanksgiving Day on November 26 (D-4). Several children and parents from the same school class were infected with Covid-19 within the first 2 weeks of December. C1 developed fever (100.4° F.;38° C.) and fatigue 2.5 days after exposure (DO) that lasted 3 days (D2-D5) and remained asymptomatic since then. The second child (C2) was asymptomatic until D12 when they developed fever (100.4° F.;38° C.), fatigue and coryza on D12-D14. A1 and A2 started Mito-MES on D4. […] A1, A2, C1 and C2 had fifteen (in total) negative NP SARS-CoV-2 PCR and each parent had 3 negative SARS-CoV-2 IgG serology over a period of 6 weeks (last NP PCR was on D42 and last SARS-CoV-2 IgG serology was on D45). The well-defined epidemiologic history around a major holiday and the timing (3-7 days) of development of symptoms in both children, confirmed that they both had Covid-19.
Two parents ([…], A1, and parent 39 years, A2) residing in Los Angeles, California were notified on Dec. 5, 2020 (defined as day 5 (D5); FIG. 8-a, C), that the schoolteacher (T1) of their child (C1) tested positive for SARS-CoV-2 and developed symptoms of Covid-19. C1 had 6-h exposure to T1 on November 30 (with masks) (DO). The family had no other exposure to any other person between November 20-30 (D-10 to DO) given Thanksgiving Day on November 26 (D-4). […]
One important consideration with COVID-19 testing is that it is often unclear how exactly the NP swab was obtained (by healthcare worker or not and whether the posterior or anterior nasopharynx were assessed). […]

[4] = Toxicity and mutagenicity in mice; conditions: mouse, in vivo
[5] = mice, tissues including liver and kidney, ≥10 days oral supplementation; cited from earlier work

In the case of `COC1=C(OC)C(=O)C(CCCCCCCCCC[P+](c2ccccc2)(c2ccccc2)c2ccccc2)=C(C)C1=O.CS(=O)(=O)[O-]` [Mito-MES, 10-(4,5-dimethoxy-2-methyl-3,6-dioxo-1,4-cyclohexadienyl) decyl triphenylphosphonium methanesulfonate], the “antiviral activity by immunofluorescence (spike S protein)” value (SARS-CoV-2 [1]) is reported as “modest antiviral activity”, the “viral genomic RNA in cell lysates (qPCR)” value (SARS-CoV-2 [1]; Vero cells) is reported as “confirmed by qPCR” and the “percent of infected cells positive for N protein and Spike S protein (flow cytometry)” value (SARS-CoV-2 [1]; Vero cells, viable single cells) is reported as “reduced the percent of infected cells”. The “antiviral activity relative to positive control remdesivir (TCID50)” value (SARS-CoV-2 [1]; Vero cells, vs 5 μM remdesivir) was “modest compared to 5 μM remdesivir”, the “concentration at which potent antiviral activity is exhibited (immunofluorescence and PCR)” value (SARS-CoV-2 [2]; Calu3) was ≤ 10 nM and the “viral titers vs vehicle control (TCID50)” value (SARS-CoV-2 [2]; Calu3, 10 nM Mito-MES alone) was “reduced viral titers”. For the same molecule, the “reduction of release of progeny virus (TCID50 of cell supernatants)” value (SARS-CoV-2 [2]; Calu3, 100 nM and 1000 nM) was > 2 logs, the “total cellular IFN-β and IFN-λ protein levels (ELISA, lysates)” value (IFN-β and IFN-λ; infected Calu3, 100-1000 nM) was “independently confirmed” and the “secretion of IFN-β and IFN-λ (ELISA, supernatants)” value (IFN-β and IFN-λ; infected Calu3, 48 h post infection, 100-1000 nM) was “did not”. For the same molecule, the MAVS protein levels (MAVS) was “did not modulate MAVS protein levels”, the MX1 protein levels (MX1) was “increased MX1 protein levels” and the “secretion of IL-6 resulting from SARS-CoV-2 infection (ELISA)” value (IL-6) was “attenuated the increase in secretion of IL-6”. For the same molecule, the “inflammation markers in plasma” value (SARS-CoV-2 [3]; both parents, 6 timepoints over 6 weeks) was “normal CRP, ferritin and IL-6 plasma levels”, the “plasma IgG to SARS-CoV-2 S1 protein” value (SARS-CoV-2 [3]; each parent, three timepoints over 5 weeks) was “undetectable levels of plasma IgG to SARS-CoV-2 S1 protein” and the “symptoms and virological/serological confirmation of infection” value (SARS-CoV-2 [3]; two parents, 20 mg/day oral, 6 weeks, repeated household exposure) was “remained asymptomatic and without virological and serological confirmation of infection”. The “human equivalent dose relative to the doses administered to A1 and A2 (20 mg/day)” value [4] was “about 60 fold” and the accumulation in tissues [5] was 50 to 700 pmol/g (wet weight).
